From US20250332167A1, “PHARMACEUTICAL USE OF CDK 4/6 INHIBITOR” (priority 2021, published 2025)
“Also recorded” adds a separate entry of the source.

Key:
[1] = tested on: NCI-H358; assay: Proliferation inhibition, non-small cell lung cancer cell line NCI-H358; assay type: cell-based; details: Homo sapiens, NCI-H358, 72 h
Protocol: (§1) Sixteen non-small cell lung cancer cell lines, including NCI-H1792, NCI-H1703, NCI-H441, SNU-761, NCI-H1975, NCI-H358, NCI-H1838, NCI-H1915, A549, SK-MES-1, NCI-H292, PC-9, NCI-H460, NCI-H23, NCI-H1581, and HLF, were used for the proliferation inhibition assay of the present invention compound. […] The cell detection equipment used was In Cell Analyzer 2200 (GE Healthcare).
(§2) With 60 μM as the initial concentration, ten points were obtained by serial five-fold dilution.
(§3) Each kind of cell in logarithmic growth phase was inoculated with 4000 cells/100 μl/well into a black transparent bottom 96-well plate and cultured overnight at 37° C. The next day, the plate was taken out, and 20 μL of the prepared sample dilutions was added to each well. The plate was then subjected to treatment at 37° C. for 72 hours. After the treatment period of 72 hours, the plate was taken out and 50 μL of neutral formaldehyde fixative (formaldehyde: PBS=1:9, 50 μl/well) was added to each well. The plate was then fixed at room temperature for 10-30 minutes. Subsequently, the wells were washed twice with 1× PBS (100 μl/well) and treated with 0.2% Triton™-X100 for 5-10 minutes to permeabilize the cells. […] The inhibitory rates of each compound at different concentration points were calculated by using the following formula, and IC50 values were obtained through curve fitting using GraphPad Prism 6.0 software.

[2] = tested on: NCI-H2228 xenograft; assay: Human non-small cell lung cancer NCI-H2228 xenograft mouse model; assay type: in vivo, mice
Excerpt: (§4) The formula for calculating tumor volume was: Tumor Volume (mm^3)=½×(a×b^2) (where “a” represents the long diameter and “b” represents the short diameter).
(§5) The relative tumor growth rate (T/C) is the percentage value of the relative tumor volume or weight between the treatment group and the control group at a certain time point. The calculation formula is as follows: • T/C(%)=TRTV/CRTV×100% (TRTV: Average RTV of the treatment group; CRTV: Average RTV of the Vehicle group; RTV=Vt/V0, where V0 is the tumor volume of the animal at the time of grouping and Vt is the tumor volume of the animal after treatment).
(§6) (T and C are the relative tumor volume (RTV) or weight (TW) of the treatment group and control group at a specific time point, respectively).
Human non-small cell lung cancer cells NCI-H2228 were cultured in RPMI-1640 medium containing 10% fetal bovine serum. Log-phase NCI-H2228 cells were collected, suspended in PBS to an appropriate concentration, and mixed with extracellular matrix gel in a 1:1 ratio for subcutaneous tumor implantation in mice. Twenty female mice were subcutaneously implanted with NCI-H2228 cells on the right side. The cells were suspended in PBS and mixed evenly with matrix gel in a 1:1 ratio (0.1 ml per mouse). When the average tumor volume reached 143 mm^3, the mice were randomly divided into groups based on tumor size. The groups received either the solvent or Compound A from Example 1 (50 mg/kg), administrated by oral intragastric administration once a day for 28 days. Tumor volume and body weight changes were regularly observed. All animals were euthanized on day 50 after cell inoculation. The tumors were weighed and photographed. The calculation methods for tumor volume, relative tumor growth rate (T/C), and tumor growth inhibition rate (TGI) were shown in Example 3.

[3] = tested on: NCI-H23; assay: Proliferation inhibition, non-small cell lung cancer cell line NCI-H23; assay type: cell-based; details: Homo sapiens, NCI-H23, 72 h
Protocol: as §1, §2, §3

[4] = tested on: PC-9; assay: Proliferation inhibition, non-small cell lung cancer cell line PC-9; assay type: cell-based; details: Homo sapiens, PC-9, 72 h
Protocol: as §1, §2, §3

[5] = tested on: NCI-H460; assay: Proliferation inhibition, non-small cell lung cancer cell line NCI-H460; assay type: cell-based; details: Homo sapiens, NCI-H460, 72 h
Protocol: as §1, §2, §3

[6] = tested on: NCI-H1703; assay: Proliferation inhibition, non-small cell lung cancer cell line NCI-H1703; assay type: cell-based; details: Homo sapiens, NCI-H1703, 72 h
Protocol: as §1, §2, §3

[7] = tested on: Human glioblastoma model (BN2289); assay: Human glioblastoma xenograft mouse model (BN2289); assay type: in vivo, BALB/C nude mice; details: for Day 21 Tumor Volume / Relative Average Tumor Volume / T/C (relative tumor growth rate) / TGI (relative tumor inhibition rate): day 21
Excerpt: Human glioblastoma model (BN2289, Crown Bioscience Co., Ltd.) tumor fragments were cut into small pieces with a diameter of 2-3 mm and subcutaneously inoculated into the right side of BALB/C nude mice. Tumor growth was monitored regularly, and when the tumors grew to an average volume of approximately 100-200 mm^3, mice were randomly divided into groups based on the tumor size.
Each group consisted of 8 mice and received oral gavage administration once daily for a total of 28 days. Regular observations were made on tumor volume and changes in body weight. Efficacy evaluation was conducted based on the relative tumor growth rate (T/C) and the relative tumor inhibition rate (TGI).
as §4, §5, §6

[8] = tested on: SK-MES-1; assay: Proliferation inhibition, non-small cell lung cancer cell line SK-MES-1; assay type: cell-based; details: Homo sapiens, SK-MES-1, 72 h
Protocol: as §1, §2, §3

[9] = tested on: NCI-H441; assay: Proliferation inhibition, non-small cell lung cancer cell line NCI-H441; assay type: cell-based; details: Homo sapiens, NCI-H441, 72 h
Protocol: as §1, §2, §3

[10] = tested on: HLF; assay: Proliferation inhibition, non-small cell lung cancer cell line HLF; assay type: cell-based; details: Homo sapiens, 72 h
Protocol: as §1, §2, §3

[11] = 50 mg/kg oral once a day for 28 days, day 50 post-implantation
[12] = 50 mg/kg oral once a day, treatment period
[13] = 10 mg/kg oral gavage once daily
[14] = 25 mg/kg oral gavage once daily
[15] = 50 mg/kg oral gavage once daily

Structure (SMILES): CC1=Nc2c(F)cc(-c3nc(Nc4ccc(C5CCN(C)CC5)cn4)ncc3F)cc2C12CCCC2.O=C(O)/C=C/C(=O)O [Compound A, Fumarate salt of 5-fluoro-4-(7′-fluoro-2′-methylspiro[cyclopentane-1,3′-indol]-5′-yl)-N-(5-(1-methylpiperidin-4-yl)pyridin-2-yl)pyrimidine-2-amine]
- IC50 [1]: 17 nM
- T/C [2, 11]: 64%
- TGI [2, 11]: 36%
- Tumor relative volume (x ± SEM) [2, 11]: 3.38 ± 0.23
- Tumor volume (x ± SEM) [2, 11]: 506.53 mm^3
- Tumor volume (x ± SEM) ([2]; 50 mg/kg oral once a day for 28 days, day 50 post-implantation, listed as CompoundA): 506.53 ± 44.73 mm^3
- Body weight change [2, 12]: slight weight loss
- Tolerability / adverse effects [2, 12]: good tolerability; also recorded: no obvious adverse effects
- IC50 [3]: 243 nM
- IC50 [4]: 180 nM
- IC50 [5]: 235 nM
- IC50 [6]: 3 nM
- Day 21 Tumor Volume ([7]; 5 mg/kg oral gavage once daily): 2038.41 ± 177.46 mm^3
- Relative Average Tumor Volume ([7]; 5 mg/kg oral gavage once daily): 13.80
- T/C (relative tumor growth rate) ([7]; 5 mg/kg oral gavage once daily): 95.08%
- TGI (relative tumor inhibition rate) ([7]; 5 mg/kg oral gavage once daily): 4.92%
- Day 21 Tumor Volume [7, 13]: 1900.70 ± 134.20 mm^3
- Relative Average Tumor Volume [7, 13]: 12.81
- T/C (relative tumor growth rate) [7, 13]: 88.24%
- TGI (relative tumor inhibition rate) [7, 13]: 11.76%
- Day 21 Tumor Volume [7, 14]: 1302.81 ± 119.99 mm^3
- Relative Average Tumor Volume [7, 14]: 8.80
- T/C (relative tumor growth rate) [7, 14]: 60.61%
- TGI (relative tumor inhibition rate) [7, 14]: 39.39%
- Day 21 Tumor Volume [7, 15]: 938.13 ± 52.26 mm^3
- Relative Average Tumor Volume [7, 15]: 6.32
- T/C (relative tumor growth rate) [7, 15]: 43.56%
- TGI (relative tumor inhibition rate) [7, 15]: 56.44%
- Drug toxicity / tolerance (body weight) ([7]; 5-50 mg/kg oral gavage once daily, 28 days): no significant toxic side effects
- IC50 [8]: 67 nM
- IC50 [9]: 7 nM
- IC50 [10]: 2010 nM
